This note sets out measurements from PubChem BioAssay (NCI).

The structures appear in SMILES notation. “And” between values parts separate entries of the source, which are not always exact repeats. Identical values can stand only once.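 Where inhibition never reached the appropriate level, the endpoint shown equals the highest concentration tested. Otherwise, values were interpolated linearly from a five-concentration, 48-hour dose response in 96-well plates. Abbreviation: GI50, concentration required for 50% inhibition of growth. Definition used: TGI = concentration required for complete inhibition of growth.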

Among the test systems are A549 NSCLC; CCRF-CEM leukemia; HS 578T breast; LOX IMVI melanoma; MDA-MB-231 breast; NCI-H226 lung; NCI/ADR-RES ovarian; SF-295 CNS; SK-MEL-5 melanoma; UACC-62 melanoma.
Holding throughout (assay): growth of human tumour cells (NCI), 48 h

As to `CCN(CC)CCCC(C)Nc1c2ccc(Cl)cc2nc2ccc(OC)cc12` (configuration not stated), the TGI in the experiment with A549 NSCLC was 3.68 µM and 3.64 µM; in the experiment on CCRF-CEM leukemia, 7.62 µM and 5.45 µM; in the experiment on HS 578T breast, 8.27 µM and 14.8 µM; with LOX IMVI melanoma, 3.56 µM and 2.57 µM; in the experiment with NCI-H226 lung, 10.7 µM; with NCI/ADR-RES ovarian, 9.69 µM and 7.81 µM. Also, the TGI in the experiment with SF-295 CNS was 3.51 µM and 2.4 µM; with SK-MEL-5 melanoma it was 3.1 µM; in the experiment with UACC-62 melanoma, 3.29 µM and 3.4 µM. Further, the GI50 with CCRF-CEM leukemia is 1.48 µM; in the experiment with HS 578T breast it was 2.46 µM; in the experiment with LOX IMVI melanoma, 1.52 µM; in the experiment on MDA-MB-231 breast, 0.968 µM; with NCI/ADR-RES ovarian it was 2.26 µM; with SF-295 CNS, 1.55 µM.
For `COc1cc(Nc2nccc(Nc3ccc4c(C)[nH]nc4c3)n2)cc(OC)c1OC`, the GI50 is 1.26 µM in the experiment on A549 NSCLC; 6 µM with CCRF-CEM leukemia; 0.604 µM in the experiment with HS 578T breast; 0.963 µM with LOX IMVI melanoma; 1.76 µM in the experiment on MDA-MB-231 breast; 1.01 µM in the experiment with NCI-H226 lung. Besides, the GI50 in the experiment on NCI/ADR-RES ovarian is 4.39 µM; with SF-295 CNS it was 2.66 µM; with SK-MEL-5 melanoma, 2.69 µM; in the experiment with UACC-62 melanoma, 1.08 µM. The TGI with A549 NSCLC is 5.41 µM; in the experiment on CCRF-CEM leukemia it was above 25 µM; with HS 578T breast it was 5.15 µM; with LOX IMVI melanoma it was 3.98 µM; with MDA-MB-231 breast, 10.5 µM; with NCI-H226 lung, 7.1 µM. Besides, the TGI in the experiment on NCI/ADR-RES ovarian stood at 13.7 µM; in the experiment with SF-295 CNS, 9.77 µM; in the experiment on SK-MEL-5 melanoma, 5.96 µM; with UACC-62 melanoma it was 4.82 µM.
With `COC(=O)CCc1cc(OC)c2c(c1)C(C(=O)OC)C(c1ccc(OC)c(OC)c1)O2` (configuration not stated), the GI50 was > 100 µM and 38 µM in the experiment on A549 NSCLC; > 100 µM and 43.4 µM with HS 578T breast; > 100 µM and 12.1 µM with LOX IMVI melanoma; > 100 µM and 21.4 µM in the experiment on MDA-MB-231 breast; > 100 µM and 26.8 µM in the experiment on NCI/ADR-RES ovarian; > 100 µM and 17.1 µM in the experiment on SF-295 CNS. Further, the GI50 in the experiment with SK-MEL-5 melanoma is > 100 µM and 12 µM; in the experiment on UACC-62 melanoma, > 100 µM and 16.7 µM. Also, the TGI was above 100 µM in the experiment with A549 NSCLC; above 100 µM in the experiment on CCRF-CEM leukemia; above 100 µM with HS 578T breast; above 100 µM in the experiment on LOX IMVI melanoma; above 100 µM in the experiment on MDA-MB-231 breast; > 100 µM and 54.5 µM in the experiment on NCI-H226 lung. Moreover, the TGI in the experiment on NCI/ADR-RES ovarian, in the experiment on SF-295 CNS, with SK-MEL-5 melanoma and in the experiment with UACC-62 melanoma was above 100 µM each time.
With `O=c1c(Oc2ccc(F)cc2F)cc2cnc(NC3CCOCC3)nc2n1C1CCS(=O)(=O)CC1`, the GI50 in the experiment on A549 NSCLC, in the experiment on CCRF-CEM leukemia, with HS 578T breast, in the experiment with LOX IMVI melanoma, with MDA-MB-231 breast and in the experiment with NCI-H226 lung was above 25 µM in each case. Besides, the GI50 in the experiment with NCI/ADR-RES ovarian, in the experiment with SF-295 CNS, in the experiment with SK-MEL-5 melanoma and in the experiment with UACC-62 melanoma was above 25 µM each time. For the same molecule, the TGI in the experiment with A549 NSCLC, with CCRF-CEM leukemia, in the experiment on HS 578T breast, in the experiment with LOX IMVI melanoma, in the experiment with MDA-MB-231 breast and in the experiment with NCI-H226 lung was above 25 µM in each case. Besides, the TGI in the experiment on NCI/ADR-RES ovarian, in the experiment with SF-295 CNS, in the experiment on SK-MEL-5 melanoma and in the experiment on UACC-62 melanoma was above 25 µM throughout.
With `O=C(/C=C/c1ccc(F)cc1)c1ccc(Cl)cc1Cl`, the GI50 with A549 NSCLC was 33.5 µM; in the experiment on CCRF-CEM leukemia, 22.1 µM; in the experiment with HS 578T breast, 54.3 µM; with LOX IMVI melanoma, 41.1 µM; in the experiment on MDA-MB-231 breast, above 100 µM; in the experiment with NCI-H226 lung it was above 100 µM. Further, the GI50 is 38.4 µM in the experiment on NCI/ADR-RES ovarian, 77.3 µM in the experiment on SF-295 CNS, 50.8 µM with SK-MEL-5 melanoma and 39.8 µM with UACC-62 melanoma. For the same molecule, the TGI with A549 NSCLC is above 100 µM; in the experiment with CCRF-CEM leukemia, 52.8 µM; with HS 578T breast, above 100 µM; in the experiment with LOX IMVI melanoma, above 100 µM; in the experiment on MDA-MB-231 breast, above 100 µM; in the experiment on NCI-H226 lung, above 100 µM. Further, the TGI in the experiment on NCI/ADR-RES ovarian, in the experiment with SF-295 CNS, in the experiment on SK-MEL-5 melanoma and in the experiment with UACC-62 melanoma was above 100 µM in each case.
`COc1ccc(CN(C)c2ccc(CO)c(Cl)c2)cc1`: the GI50 in the experiment on A549 NSCLC was 5.75 µM; in the experiment on CCRF-CEM leukemia, 32.9 µM; with HS 578T breast it was 38.4 µM; in the experiment on LOX IMVI melanoma, 27.9 µM; with MDA-MB-231 breast, 22.7 µM; in the experiment on NCI-H226 lung it was 0.125 µM. In addition, the GI50 in the experiment with NCI/ADR-RES ovarian was 15.9 µM; with SF-295 CNS, 3.35 µM; with SK-MEL-5 melanoma, 8.24 µM; in the experiment on UACC-62 melanoma, 0.274 µM. Further, the TGI with A549 NSCLC was 55.6 µM; in the experiment with CCRF-CEM leukemia it was above 100 µM; in the experiment with HS 578T breast, above 100 µM; in the experiment with LOX IMVI melanoma, above 100 µM; with MDA-MB-231 breast, above 88.8 µM; with NCI-H226 lung, 0.279 µM. For the same molecule, the TGI was 55.3 µM in the experiment with NCI/ADR-RES ovarian, above 100 µM with SF-295 CNS, 21.9 µM in the experiment on SK-MEL-5 melanoma and 2.24 µM with UACC-62 melanoma.
`COc1ccc(/C=N\NC(=O)CN2CCN(c3cc4c(cc3F)c(=O)c(C(=O)N/N=C/c3ccc(OC)c(OC)c3)cn4C3CC3)CC2)cc1OC`: the GI50 with A549 NSCLC is 4.3 µM; in the experiment with CCRF-CEM leukemia, 3.31 µM; in the experiment on HS 578T breast, 2.51 µM; with LOX IMVI melanoma, 3.22 µM; in the experiment with MDA-MB-231 breast, 2.33 µM; in the experiment with NCI-H226 lung, 4.44 µM. The GI50 was above 100 µM in the experiment with NCI/ADR-RES ovarian, 17.9 µM in the experiment on SF-295 CNS, 3.69 µM in the experiment on SK-MEL-5 melanoma and 2.21 µM with UACC-62 melanoma. Moreover, the TGI was 75.9 µM in the experiment with A549 NSCLC; above 100 µM in the experiment with CCRF-CEM leukemia; 8.99 µM in the experiment with HS 578T breast; 11.3 µM with LOX IMVI melanoma; 6.31 µM with MDA-MB-231 breast; 24 µM with NCI-H226 lung. The TGI in the experiment on NCI/ADR-RES ovarian was above 100 µM; in the experiment on SF-295 CNS, 63 µM; in the experiment with SK-MEL-5 melanoma, 15.8 µM; with UACC-62 melanoma, 4.83 µM.
As to `O=c1ccn(C2OC(CO)C(O)C2F)c(=O)[nH]1` (configuration not stated), the GI50 with A549 NSCLC, in the experiment with HS 578T breast, in the experiment with LOX IMVI melanoma, in the experiment on MDA-MB-231 breast, in the experiment with NCI-H226 lung and with NCI/ADR-RES ovarian was above 1000 µM in each case. Also, the GI50 in the experiment on SF-295 CNS, in the experiment with SK-MEL-5 melanoma and with UACC-62 melanoma was above 1000 µM in each case. In addition, the TGI in the experiment on A549 NSCLC, in the experiment with CCRF-CEM leukemia, in the experiment with HS 578T breast, with LOX IMVI melanoma, in the experiment on MDA-MB-231 breast and with NCI-H226 lung was above 1000 µM throughout. The TGI in the experiment with NCI/ADR-RES ovarian, with SF-295 CNS, in the experiment with SK-MEL-5 melanoma and with UACC-62 melanoma was above 1000 µM each time.
On to `CCOC(=O)C(Cc1c[nH]c2ccc(N)cc12)(NC(C)=O)C(=O)OCC`, for which the GI50 in the experiment on A549 NSCLC was above 1000 µM; with CCRF-CEM leukemia, 656 µM; with HS 578T breast, above 1000 µM; with LOX IMVI melanoma, above 1000 µM; in the experiment on MDA-MB-231 breast, above 1000 µM; with NCI-H226 lung, above 1000 µM. The GI50 in the experiment with NCI/ADR-RES ovarian, in the experiment with SF-295 CNS, with SK-MEL-5 melanoma and with UACC-62 melanoma was above 1000 µM throughout. Further, the TGI with A549 NSCLC, with CCRF-CEM leukemia, in the experiment on HS 578T breast, in the experiment with LOX IMVI melanoma, in the experiment on MDA-MB-231 breast and with NCI-H226 lung was above 1000 µM in each case. The TGI in the experiment with NCI/ADR-RES ovarian, in the experiment with SF-295 CNS, in the experiment on SK-MEL-5 melanoma and in the experiment on UACC-62 melanoma was above 1000 µM throughout.
For `O=C1c2ccccc2-c2c1c1ccccc1c(=O)n2CCCNCCCn1ccnc1`, the GI50 in the experiment with A549 NSCLC was 1.02 µM; in the experiment on CCRF-CEM leukemia, 0.246 µM; in the experiment on HS 578T breast, 0.545 µM; in the experiment with LOX IMVI melanoma it was 0.45 µM; with MDA-MB-231 breast, 2.68 µM; in the experiment on NCI-H226 lung, 0.186 µM. Also, the GI50 in the experiment with NCI/ADR-RES ovarian is 1.66 µM; with SF-295 CNS, 0.419 µM; in the experiment on SK-MEL-5 melanoma it was 0.379 µM; with UACC-62 melanoma it was 1.72 µM. In addition, the TGI with A549 NSCLC was determined as 20.1 µM; with CCRF-CEM leukemia, 1.71 µM; with HS 578T breast, 5 µM; in the experiment on LOX IMVI melanoma it was 1.78 µM; in the experiment with MDA-MB-231 breast, 7.36 µM; with NCI-H226 lung, 0.436 µM. Also, the TGI in the experiment on NCI/ADR-RES ovarian came out at 4.45 µM; in the experiment with SF-295 CNS it was 1.99 µM; in the experiment on SK-MEL-5 melanoma, 1.68 µM; with UACC-62 melanoma it was 5.95 µM.
As for `O=C1Nc2ccc(C(=O)c3ccco3)cc2/C1=C/c1cc(Cl)c(O)c(Cl)c1`, the GI50 in the experiment on A549 NSCLC was 6.77 µM; in the experiment with CCRF-CEM leukemia it was 1.76 µM; in the experiment with HS 578T breast, 4.94 µM; with LOX IMVI melanoma it was 1.78 µM; in the experiment on MDA-MB-231 breast it was 9.89 µM; with NCI-H226 lung it was 6.98 µM. The GI50 was 9.61 µM in the experiment with NCI/ADR-RES ovarian, 8.21 µM in the experiment on SF-295 CNS, 3.43 µM with SK-MEL-5 melanoma and 2.63 µM with UACC-62 melanoma. In addition, the TGI in the experiment with A549 NSCLC was above 24 µM; with CCRF-CEM leukemia, above 25 µM; with HS 578T breast, above 21.7 µM; with LOX IMVI melanoma, 15.3 µM; in the experiment on MDA-MB-231 breast, above 25 µM; in the experiment on NCI-H226 lung, above 24.1 µM. Moreover, the TGI in the experiment with NCI/ADR-RES ovarian was above 25 µM; in the experiment with SF-295 CNS, above 25 µM; in the experiment with SK-MEL-5 melanoma, 6.88 µM; in the experiment with UACC-62 melanoma it was 7.91 µM.
